Residues, ends and D or L forms follow the SMILES beside them.
Assay: Transdermal penetration through ex vivo mouse skin in a single-chamber diffusion cell, content by BCA kit
Assay type: in vitro ADME, Kunming mice
Details: collagen peptide 5 mg/ml in 0.9% NaCl, diffusion area 2.0 cm^2, 37.5° C.
Method: 1. Preparation of Mouse Skin Ex Vivo 10 Kunming mice of 20 to 22 g with half male and half […] were used in the experiment. After the mice were killed, the hairs on the abdomen were removed. Then the skin on the hair-removed area was peeled off, stripped of fat and tendons, and rinsed repeatedly with distilled water. After being washed, the mouse skins were rinsed with normal saline, then treated with 10% glycerol, and stored at −20° C. for use (use up within 7 days).
Single-chamber diffusion cell: The effective diffusion area of the diffusion cell is 2.0 cm^2, the volume of the receiving cell is 14 ml, the length of the custom-made stirrer is 1.4 cm, and the receiving solution is 0.9% NaCl solution.
The stored mouse skin was taken out, thawed, washed with normal saline, and sandwiched between the receiving chamber and the supplying chamber, with the medicated side facing the supplying chamber and the skin side facing the receiving chamber. The temperature of the water bath system was adjusted to 37.5° C., and the stirring speed was adjusted to 100 rpm/min. 0.9% NaCl solution pre-warmed at 37° C. was added to the receiving chamber and the air bubbles were exhausted, in order to reduce the interference, the inner surface of the mouse skin was firstly contacted with the receiving solution without medication and all the receiving solution was replaced. Then the 27 collagen peptides synthesized were prepared into 5 mg/ml solutions using 0.9% NaCl respectively, which were injected into the supplying chamber and firmly adhere to the mouse skin respectively. After 24 h, part of the receiving solution was absorbed with a syringe as the sample solution to determine the transdermal amount of collagen peptide.
The BCA kit method was used to determine the polypeptide content in the sample solution. […]

24h penetration amount [µg] | SMILES
2613.34 | CC(C)[C@H](NC(=O)[C@H](C)NC(=O)CNC(=O)[C@@H]1CCCN1C(=O)[C@@H]1CCCN1C(=O)CNC(=O)[C@@H]1CCCN1C(=O)[C@@H](NC(=O)CNC(=O)[C@H](CCCNC(=N)N)NC(=O)[C@H](CCC(=O)O)NC(=O)CN)C(C)C)C(=O)NCC(=O)N1CCC[C@H]1C(=O)N[C@@H](C)C(=O)NCC(=O)N[C@@H](CCCCN)C(=O)N[C@@H](CC(=O)O)C(=O)NCC(=O)N[C@@H](CCC(=O)O)C(=O)N[C@@H](C)C(=O)NCC(=O)N[C@@H](C)C(=O)N[C@@H](CCC(N)=O)C(=O)NCC(=O)N1CCC[C@H]1C(=O)N1CCC[C@H]1C(=O)NCC(=O)N1CCC[C@H]1C(=O)N[C@@H](C)C(=O)NCC(=O)N1CCC[C@H]1C(=O)N[C@@H](C)C(=O)NCC(=O)N[C@@H](CCC(=O)O)C(=O)N[C@@H](CCCNC(=N)N)C(=O)O [compound 12] (H-GERGVPGPPGAVGPAGKDGEAGAQGPPGPAGPAGER-OH; N-terminus and C-terminus assumed)
2098.04 | CC(C)C[C@H](NC(=O)[C@H](CC(=O)O)NC(=O)CNC(=O)[C@@H]1CCCN1C(=O)[C@@H](NC(=O)CNC(=O)[C@H](CCC(N)=O)NC(=O)[C@H](CCC(=O)O)NC(=O)CNC(=O)[C@@H]1CCCN1C(=O)[C@H](CCCCN)NC(=O)CNC(=O)[C@H](C)NC(=O)[C@H](CCC(=O)O)NC(=O)CNC(=O)[C@@H]1CCCN1C(=O)[C@@H]1CCCN1C(=O)CNC(=O)[C@H](C)NC(=O)[C@@H]1CCCN1C(=O)CNC(=O)[C@@H]1CCCN1C(=O)[C@H](CC(C)C)NC(=O)CN)C(C)C)C(=O)NCC(=O)N[C@@H](C)C(=O)N1CCC[C@H]1C(=O)NCC(=O)N1CCC[C@H]1C(=O)N[C@@H](CO)C(=O)NCC(=O)N[C@@H](C)C(=O)N[C@@H](CCCNC(=N)N)C(=O)NCC(=O)N[C@@H](CCC(=O)O)C(=O)N[C@@H](CCCNC(=N)N)C(=O)O [compound 13] (H-GLPGPAGPPGEAGKPGEQGVPGDLGAPGPSGARGER-OH; N-terminus and C-terminus assumed)
2045.62 | CC(C)C[C@H](NC(=O)[C@H](CC(=O)O)NC(=O)CNC(=O)[C@@H]1CCCN1C(=O)[C@@H](NC(=O)CN)C(C)C)C(=O)NCC(=O)N[C@@H](C)C(=O)N1CCC[C@H]1C(=O)NCC(=O)N1CCC[C@H]1C(=O)N[C@@H](CO)C(=O)NCC(=O)N[C@@H](C)C(=O)N[C@@H](CCCNC(=N)N)C(=O)NCC(=O)N[C@@H](CCC(=O)O)C(=O)N[C@@H](CCCNC(=N)N)C(=O)NCC(=O)N[C@@H](Cc1ccccc1)C(=O)N1CCC[C@H]1C(=O)NCC(=O)N[C@@H](CCC(=O)O)C(=O)N[C@@H](CCCNC(=N)N)C(=O)NCC(=O)N[C@H](C(=O)N[C@@H](CCC(N)=O)C(=O)NCC(=O)N1CCC[C@H]1C(=O)N1CCC[C@H]1C(=O)NCC(=O)N1CCC[C@H]1C(=O)N[C@@H](C)C(=O)NCC(=O)N1CCC[C@H]1C(=O)N[C@@H](CCCNC(=N)N)C(=O)O)C(C)C [compound 14] (H-GVPGDLGAPGPSGARGERGFPGERGVQGPPGPAGPR-OH; N-terminus and C-terminus assumed)
2111.23 | CC(C)[C@H](NC(=O)CNC(=O)[C@H](CCCNC(=N)N)NC(=O)[C@H](CCC(=O)O)NC(=O)CN)C(=O)N[C@@H](CCC(N)=O)C(=O)NCC(=O)N1CCC[C@H]1C(=O)N1CCC[C@H]1C(=O)NCC(=O)N1CCC[C@H]1C(=O)N[C@@H](C)C(=O)NCC(=O)N1CCC[C@H]1C(=O)N[C@@H](CCCNC(=N)N)C(=O)NCC(=O)N[C@@H](C)C(=O)N[C@@H](CC(N)=O)C(=O)NCC(=O)N[C@@H](C)C(=O)N1CCC[C@H]1C(=O)NCC(=O)N[C@@H](CC(N)=O)C(=O)N[C@@H](CC(=O)O)C(=O)NCC(=O)N[C@@H](C)C(=O)N[C@@H](CCCCN)C(=O)NCC(=O)N[C@@H](CC(=O)O)C(=O)N[C@@H](C)C(=O)NCC(=O)N[C@@H](C)C(=O)N1CCC[C@H]1C(=O)NCC(=O)N[C@@H](C)C(=O)N1CCC[C@H]1C(=O)O [compound 15] (H-GERGVQGPPGPAGPRGANGAPGNDGAKGDAGAPGAP-OH; N-terminus and C-terminus assumed)
2034.34 | CSCC[C@H](NC(=O)CNC(=O)[C@H](CCC(N)=O)NC(=O)[C@H](CC(C)C)NC(=O)CNC(=O)[C@@H]1CCCN1C(=O)[C@H](C)NC(=O)CNC(=O)[C@H](CCC(N)=O)NC(=O)[C@H](CO)NC(=O)CNC(=O)[C@@H]1CCCN1C(=O)[C@H](C)NC(=O)CNC(=O)[C@@H]1CCCN1C(=O)[C@H](C)NC(=O)CNC(=O)[C@H](C)NC(=O)[C@H](CC(=O)O)NC(=O)CNC(=O)[C@H](CCCCN)NC(=O)[C@H](C)NC(=O)CNC(=O)[C@H](CC(=O)O)NC(=O)[C@H](CC(N)=O)NC(=O)CNC(=O)[C@@H]1CCCN1C(=O)[C@H](C)NC(=O)CNC(=O)[C@H](CC(N)=O)NC(=O)[C@H](C)NC(=O)CN)C(=O)N1CCC[C@H]1C(=O)NCC(=O)N[C@@H](CCC(=O)O)C(=O)N[C@@H](CCCNC(=N)N)C(=O)O [compound 16] (H-GANGAPGNDGAKGDAGAPGAPGSQGAPGLQGMPGER-OH; N-terminus and C-terminus assumed)
2998.75 | CSCC[C@H](NC(=O)CNC(=O)[C@H](CCC(N)=O)NC(=O)[C@H](CC(C)C)NC(=O)CNC(=O)[C@@H]1CCCN1C(=O)[C@H](C)NC(=O)CNC(=O)[C@H](CCC(N)=O)NC(=O)[C@H](CO)NC(=O)CNC(=O)[C@@H]1CCCN1C(=O)[C@H](C)NC(=O)CNC(=O)[C@@H]1CCCN1C(=O)[C@H](C)NC(=O)CN)C(=O)N1CCC[C@H]1C(=O)NCC(=O)N[C@@H](CCC(=O)O)C(=O)N[C@@H](CCCNC(=N)N)C(=O)NCC(=O)N[C@@H](C)C(=O)N[C@@H](C)C(=O)NCC(=O)N[C@@H](CC(C)C)C(=O)N1CCC[C@H]1C(=O)NCC(=O)N1CCC[C@H]1C(=O)N[C@@H](CCCCN)C(=O)NCC(=O)N[C@@H](CC(=O)O)C(=O)N[C@@H](CCCNC(=N)N)C(=O)NCC(=O)N[C@@H](CC(=O)O)C(=O)N[C@@H](C)C(=O)O [compound 17] (H-GAPGAPGSQGAPGLQGMPGERGAAGLPGPKGDRGDA-OH; N-terminus and C-terminus assumed)
2309.24 | CC(C)C[C@H](NC(=O)CNC(=O)[C@H](CCCNC(=N)N)NC(=O)[C@@H](NC(=O)CNC(=O)[C@H](CC(=O)O)NC(=O)[C@H](CCCCN)NC(=O)CNC(=O)[C@@H]1CCCN1C(=O)[C@H](CO)NC(=O)CNC(=O)[C@H](CC(=O)O)NC(=O)[C@H](C)NC(=O)CNC(=O)[C@H](CCCCN)NC(=O)[C@@H]1CCCN1C(=O)CNC(=O)[C@H](C)NC(=O)[C@H](CC(=O)O)NC(=O)CNC(=O)[C@H](CCCNC(=N)N)NC(=O)[C@H](CC(=O)O)NC(=O)CNC(=O)[C@H](CCCCN)NC(=O)[C@@H]1CCCN1C(=O)CNC(=O)[C@@H]1CCCN1C(=O)[C@H](CC(C)C)NC(=O)CNC(=O)[C@H](C)NC(=O)[C@H](C)NC(=O)CNC(=O)[C@H](CCCNC(=N)N)NC(=O)[C@H](CCC(=O)O)NC(=O)CN)C(C)C)C(=O)N[C@H](C(=O)O)[C@@H](C)O [compound 18] (H-GERGAAGLPGPKGDRGDAGPKGADGSPGKDGVRGLT-OH; N-terminus and C-terminus assumed)
2432.23 | CC[C@H](C)[C@H](NC(=O)CNC(=O)[C@H](CCC(N)=O)NC(=O)[C@@H]1CCCN1C(=O)CNC(=O)[C@@H]1CCCN1C(=O)[C@@H](NC(=O)CNC(=O)[C@@H]1CCCN1C(=O)[C@H](C)NC(=O)CNC(=O)[C@H](C)NC(=O)[C@@H]1CCCN1C(=O)CNC(=O)[C@H](CC(=O)O)NC(=O)[C@H](C)NC(=O)CNC(=O)[C@@H]1CCCN1C(=O)[C@H](CO)NC(=O)CN)[C@@H](C)O)C(=O)N[C@@H](C)C(=O)NCC(=O)N[C@@H](CCC(N)=O)C(=O)N[C@@H](CCCNC(=N)N)C(=O)NCC(=O)N[C@H](C(=O)N[C@H](C(=O)NCC(=O)N[C@@H](CC(C)C)C(=O)N1CCC[C@H]1C(=O)NCC(=O)N[C@@H](CCC(N)=O)C(=O)N[C@@H](CCCNC(=N)N)C(=O)NCC(=O)N[C@@H](CCC(=O)O)C(=O)N[C@@H](CCCNC(=N)N)C(=O)O)C(C)C)C(C)C [compound 19] (H-GSPGADGPAGAPGTPGPQGIAGQRGVVGLPGQRGER-OH; N-terminus and C-terminus assumed)
2509.11 | CC[C@H](C)[C@H](NC(=O)CN)C(=O)N[C@@H](C)C(=O)NCC(=O)N[C@@H](CCC(N)=O)C(=O)N[C@@H](CCCNC(=N)N)C(=O)NCC(=O)N[C@H](C(=O)N[C@H](C(=O)NCC(=O)N[C@@H](CC(C)C)C(=O)N1CCC[C@H]1C(=O)NCC(=O)N[C@@H](CCC(N)=O)C(=O)N[C@@H](CCCNC(=N)N)C(=O)NCC(=O)N[C@@H](CCC(=O)O)C(=O)N[C@@H](CCCNC(=N)N)C(=O)NCC(=O)N[C@@H](Cc1ccccc1)C(=O)N1CCC[C@H]1C(=O)NCC(=O)N[C@@H](CC(C)C)C(=O)N1CCC[C@H]1C(=O)NCC(=O)N1CCC[C@H]1C(=O)N[C@@H](CO)C(=O)NCC(=O)N[C@@H](CCC(=O)O)C(=O)N1CCC[C@H]1C(=O)NCC(=O)N[C@@H](CCCCN)C(=O)N[C@@H](CCC(N)=O)C(=O)NCC(=O)N1CCC[C@H]1C(=O)N[C@@H](CO)C(=O)O)C(C)C)C(C)C [compound 20] (H-GIAGQRGVVGLPGQRGERGFPGLPGPSGEPGKQGPS-OH; N-terminus and C-terminus assumed)
